Experimental data: ChEMBL document CHEMBL4725462, “Biotransformation: Impact and Application of Metabolism in Drug Discovery” (ACS Med Chem Lett, 2020)
Calls of active or inactive are those of the source. No cut-off for these calls is given here.

Key:
HMC-1.2 = test: Induction of apoptosis in human HMC-1.2 cells by flow cytometry; type: functional, cell-based
cells = type: functional, tissue-based; conditions: Homo sapiens, Mast cell
Description: Growth inhibition of human neoplastic mast cells incubated for 24 to 48 hrs

[1] = Inhibition of IgE-dependent histamine release in normal human blood basophils; type: functional, tissue-based; conditions: Basophil

Row | IC50 (cells) [nM] | Compound | Activity (HMC-1.2) | IC50 [1] [nM]
1 | 50 | CN(C(=O)c1ccccc1)[C@@H]1C[C@H]2O[C@@](C)([C@@H]1O)n1c3ccccc3c3c4c(c5c6ccccc6n2c5c31)C(=O)NC4 | Active | 10
2 | – | CO[C@@H]1[C@H](N(C)C(=O)c2ccccc2)C[C@H]2O[C@]1(C)n1c3ccccc3c3c4c(c5c6ccccc6n2c5c31)C(=O)NC4O (stereo partly specified) | inactive | 10
3 | – | CO[C@@H]1[C@H](N(C)C(=O)c2ccccc2)C[C@H]2O[C@]1(C)n1c3ccccc3c3c4c(c5c6ccccc6n2c5c31)C(=O)NC4 | Active | –
